In PMC4929710, “Specificity and mechanism of action of alpha-helical membrane-active peptides interacting with model and biological membranes by single-molecule force spectroscopy” (Scientific Reports, 2016):
Where two headings read alike, the source gives them in different places.

Key:
[1] = test system: A549 cells; format: cell-based, human; conditions: 24 h
Method: (§1) The MTT cell proliferation assay was used to investigate the anticancer activity and cytotoxicity of MAPs against cancer cell lines (HeLa, A549, SGC-7901, and B16) and normal cells (3T3-L1), respectively. Cells (5 × 10^3) were seeded in 96-well plates and incubated overnight. The peptide samples were then added to cells with final concentrations ranging from 1 μM to 125 μM. After 24 h, 20 μL of 5 mg/mL MTT solution in PBS was added to the cells and treated for 4 h at 37 °C. The formazan crystals were dissolved by 150 μL of dimethyl sulfoxide (DMSO). Finally, the absorbance was determined at 492 nm. The results were expressed as IC50, representing the concentration at which cell viability was reduced by 50%. All assays were repeated in triplicate.

[2] = test system: HeLa cells; format: cell-based, human; conditions: 24 h
Method: as §1

[3] = test system: SGC7901 cells; format: cell-based, human; conditions: 24 h
Method: as §1

[4] = test system: A. laidlawii cells; experiment: Single-molecule force spectroscopy (AFM); format: binding, Acholeplasma laidlawii; conditions: RMS ± SD; N-terminal Cys peptide on AFM tip via PEG linker
Text: Based on the above results, five selected peptides of V13L, A12L/A20L, V13K, V13E, and L6A/L17A, with different hydrophobicity and charges were used to examine the interaction probabilities and forces between peptides and membranes, both on the lipid model membranes and on the biological membranes by SMFS based on AFM, respectively. A cysteine residue was covalently introduced to the N-terminus of peptides and provided a free sulfhydryl group to modify the tips of the AFM. A PEG linker was used since each heterobifunctional PEG–NHS linker (approximately 20 nm) can only covalently connect with a single peptide molecule, which guarantees a single-molecule interaction between MAPs and biological membranes in real time[19]. If an AFM tip was functionalized with two or more peptides, where several peaks were recorded. In the reports, data with two peaks were not collected and calculated. For one force–distance cycle, one peptide-functionalized AFM tip approached the model and biological membranes right on the top, and the subsequent tip was withdrawn from the cell membranes to retrace the process. […] In addition, blocking experiment was used to test the specificity of these force events. As the electrostatic attraction is one important reason for peptides approaching model membranes and biological membranes, the Tris-HCl buffer including plenty amino groups[20] was injected into the working chamber and inhibits the interactions between MAPs and model membranes/biological membranes. […] The unbinding forces of V13L against different model membranes and biological membranes with the loading rate of 1 × 10^5 pN s^−1 are shown in Fig. 3c,f–h,j–l.
The AFM tip was first washed with concentrated sulfuric acid and hydrogen peroxide (3:1, v:v). The tip was dried using ozone (O3) for 15 min and dried overnight in a dryer. The tip was then modified with APTES under an argon atmosphere and the peptide connected with a PEG–NHS linker. Finally, the AFM tip linked with the peptide was washed three times in PBS and kept at 4 °C. A 500-μL LUV suspension was deposited on Lys coated glass and the LUVs were absorbed on the surface for 1 h at 65 °C [9][29]. A. laidlawii was deposited on poly-L-lysine coated glass and absorbed for 1 h at 37 °C [30]. The 3T3-L1 and HeLa cells were cultured on glass slides in Dulbecco’s modified Eagle’s medium (DMEM). Before performing force spectroscopy experiments, the cells were washed with fresh DMEM three times to remove the cell metabolites. Isolation of chicken erythrocytes was carried out at room temperature. Then the erythrocytes were washed three times in 2 mL PBS buffer by centrifuge (1,000 rpm) and resuspended in PBS buffer. 200 μL erythrocyte suspension were deposited onto poly-L-lysine coated glass for 20 min[10]. […]

[5] = test system: PC/PG (7:3 w/w) LUVs; experiment: Tryptophan fluorescence with LUVs; format: binding; conditions: PC/PG (7:3 w/w) LUVs versus HEPES buffer, 25 °C
Text: In order to investigate the interaction between peptides and difference types of cell membranes, three different LUVs were used to mimic a prokaryotic cell membrane (PC/PG), a normal eukaryotic cell membrane (PC/Chol), and a cancer cell membrane (PC/SM/PE/PS/Chol). Tryptophan residue in the peptide sequence was used as a fluorescent probe to examine the interaction of peptides with model membranes. […] For example, in the PC/PG (7:3 w/w) anionic prokaryotic mimicking model membrane, peptides V13L and A12L/A20L had the strongest hydrophobicity with blue shift values of approximately 37 nm and 38 nm, respectively. Conversely, peptide V13E with a negative charge of glutamic acid residue, and peptide L6A/L17A with the lowest hydrophobicity had blue shift values of approximately 18 nm and 17 nm, respectively. […] In addition, within PC/SM/PE/PS/Chol (4.35:4.35:1:0.3:1 w/w) as a cancer-mimicking model membrane, the same results could be obtained in that peptide hydrophobicity correlates with anticancer activity and the blue shift values of peptides.
In accordance with previously described methods, LUVs were prepared with PC/PG (7:3 w/w), PC/Chol (8:1 w/w), and PC/SM/PE/PS/Chol (4.35:4.35:1:0.3:1 w/w) to mimic prokaryotic cell, […], membranes, respectively. Lipids using the freeze-thaw method as described previously, followed by extrusion through […] double-stacked nuclepore filters using an Mini-Extruder (Avanti Polar Lipids, Inc.)[11][27].
Three kinds of LUVs were prepared and cultured in HEPES buffer (pH 7.4, 10 mM HEPES, 150 mM NaCl) and the molar concentration was adjusted to 100 μM. A total of 14 μL of 100 μM MAPs was mixed with 686 μL of 100 μM liposomes at 25 °C for 10 min. A Shimadzu RF-5301PC, (excitation wavelength of […], emission wavelength of 300–450 nm) was used to measure the tryptophan fluorescence. Potassium iodide (KI) as a quencher was added to the previous reaction system for a final concentration of 0.02–0.08 M, respectively. The experimental data were plotted according to the Stern–Volmer equation F0/F = 1 + Ksv[Q], where F0 and F are the fluorescence intensity in the absence or presence of a quencher at concentration [Q], respectively, and Ksv is the Stern–Volmer quenching constant.

[6] = MTT, 1-125 μM, triplicate, read-out: IC50 A549
[7] = MTT, 1-125 μM, triplicate, read-out: IC50 HeLa
[8] = MTT, 1-125 μM, triplicate, read-out: IC50 SGC7901

Compound | IC50 [1, 6] | IC50 [2, 7] | IC50 [3, 8] | Unbinding force A. laidlawii [4] | PC/PG Blue shift [5] | IC50 [1] | IC50 [2] | IC50 [3]
Ac-KWKSFAKTFKSAKKTVAHTALKAISS-NH2 [L6A/L17A] | > 125 µM | > 125 µM | > 125 µM | 41 ± 15 pN | ~17 nm | – | – | –
Ac-KWKSFLKTFKSALKTVLHTALKAISS-NH2 [Peptide V13L] | – | – | – | 27 ± 9 pN | – | 2.8 µM | 4.86 µM | 2 µM
Ac-KWKSFLKTFKSAEKTVLHTALKAISS-NH2 [Peptide V13E] | – | – | – | 55 ± 12 pN | – | 110 µM | 73.7 µM | 92 µM
CC[C@H](C)[C@H](NC(=O)[C@H](C)NC(=O)[C@H](CCCCN)NC(=O)[C@H](CC(C)C)NC(=O)[C@H](C)NC(=O)[C@@H](NC(=O)[C@H](Cc1cnc[nH]1)NC(=O)[C@H](CC(C)C)NC(=O)[C@@H](NC(=O)[C@@H](NC(=O)[C@H](CCCCN)NC(=O)[C@H](CCCCN)NC(=O)[C@H](C)NC(=O)[C@H](CO)NC(=O)[C@H](CCCCN)NC(=O)[C@H](Cc1ccccc1)NC(=O)[C@@H](NC(=O)[C@H](CCCCN)NC(=O)[C@H](CC(C)C)NC(=O)[C@H](Cc1ccccc1)NC(=O)[C@H](CO)NC(=O)[C@H](CCCCN)NC(=O)[C@H](Cc1c[nH]c2ccccc12)NC(=O)[C@H](CCCCN)NC(C)=O)[C@@H](C)O)[C@@H](C)O)C(C)C)[C@@H](C)O)C(=O)N[C@@H](CO)C(=O)N[C@@H](CO)C(N)=O [Peptide V13K] | 24.4 µM | 13.1 µM | 18.9 µM | 51 ± 18 pN | 28 nm | – | – | –
